Experimental data: ChEMBL document CHEMBL1121709, “Importance of the aromatic ring in adrenergic amines. 6. Nonaromatic analogues of phenylethanolamine as inhibitors of phenylethanolamine N-methyltransferase: role of pi-electronic and steric interactions” (J Med Chem, 1981)

Experiments:
[1] = molecular target: T1, Phenylethanolamine N-methyltransferase (Bos taurus, UniProt P10938); test: The compound was measured for the 50% inhibition of phenylethanolamine N-methyl-transferase
T1 sequence (P10938 whole entry): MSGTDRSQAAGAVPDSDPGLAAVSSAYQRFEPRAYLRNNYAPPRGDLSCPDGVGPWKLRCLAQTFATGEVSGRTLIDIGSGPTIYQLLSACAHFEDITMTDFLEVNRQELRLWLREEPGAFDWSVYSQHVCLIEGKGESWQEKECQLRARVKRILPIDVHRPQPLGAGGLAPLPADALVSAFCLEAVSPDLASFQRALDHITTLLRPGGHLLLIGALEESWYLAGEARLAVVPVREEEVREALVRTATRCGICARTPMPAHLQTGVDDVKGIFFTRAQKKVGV

[2] = molecular target: T1, Phenylethanolamine N-methyltransferase; test: The compound was measured for the 50% inhibition of phenylethanolamine N-methyl-transferase; 50% inhibition was not achieved at 10e-3 M

SMILES	IC50 [1] [µM]	IC50 [2] [µM]
NCC(O)C1CC2CCC1C2 (stereo in doubt; 13)	475	–
NCC(O)C1CC2C=CC1C2 (stereo in doubt; 9)	454	–
NCC(O)C12CCC(CC1)C2 (stereo not drawn)	–	> 1000
NCC(O)C1CC2C=CC1C2 (stereo in doubt; 10)	1100	–
NCC(O)C12CC3C[C@H](C1)C[C@H](C3)C2 (stereo partly drawn)	195	–
NCC(O)C1CCCCCCC1 (stereo not drawn)	8	–
NCC(O)C12C=CC(CC1)C2 (stereo not drawn)	–	> 1000
NCC(O)C1CC2CCC1C2 (stereo in doubt; 12)	193	–
